As usually defined, the IC50 is the concentration needed to halve the response being measured. Broadly, the CC50 is the concentration that lowers cell viability or growth by half.

The results in this text go back to patent US20260022089A1, “QUINONE-DERIVED COMPOUNDS AND USE THEREOF AGAINST LEISHMANIA SPP” (Universidad de la Laguna, priority 2022, published 2026).

The subject of series [1] is Leishmania amazonensis promastigotes. The series is described as follows: Leishmanicidal activity, alamarBlue fluorescence, 72 hours incubation with promastigotes. The series is classed as cell-based. Conditions: for SI (CC50/IC50): ratio of macrophage CC50 to L. amazonensis IC50. On the technique in general: The colour change of resazurin is a common sign of viable cells or microbes.

A short description of series [2]: Toxicity against mouse cells, alamarBlue assay, 24 hours. Format: cell-based. Particulars: murine macrophages, read-out: Macrophage Toxicity CC50. On the procedure: To assess toxicity, all compounds were evaluated against mouse cells for 24 hours by means of the alamarBlue assay. […] The higher the value of CC50, the greater the amount of compound required to damage mouse cells, therefore, the lower the toxicity of the compound.

Where [3] appears, read: Leishmania amazonensis, promastigotes, 72 hours, alamarBlue, read-out: L. amazonensis IC50.

≈ marks a conversion by molar mass, not a printed value. Like-named read-outs stand apart in the source and are kept apart here.

Turning to `CCCCCCCCCCCCCCCCOP(=O)([O-])OCC[N+](C)(C)C` [Miltefosine, miltefosine, reference compound], in series [1], the IC50 was 2.64 µg/mL (≈ 6.48 µM) and the “SI (CC50/IC50)” value is 11.14. Also, the IC50 in series [1] (Leishmania amazonensis, read-out: IC50) is 2.64 µg/mL (≈ 6.48 µM). In addition, in series [2], the CC50 at 24 h was 29.4 ± 1.25 µg/mL (≈ 72.2 µM).
`CC1=CC(=O)C=C(C2CCCC2)C1=O` [SG-003, 2-cyclopentyl-6-methylcyclohexa-2,5-diene-1,4-dione]: in series [1] (setting [3]), the IC50 turned out to be 0.34 ± 0.01 µg/mL (≈ 1.79 µM). Moreover, in series [1], the “SI (CC50/IC50)” value came to 13.30. Moreover, in series [2], the 50% cytotoxic concentration (CC50) at 24 h was determined as 4.53 ± 0.9 µg/mL (≈ 23.8 µM).
For the molecule `CC1=CC(=O)C(C2CCCC2)=CC1=O` [SG-005, 2-cyclopentyl-5-methylcyclohexa-2,5-diene-1,4-dione], the IC50 in series [1] (setting [3]) came out at 0.13 ± 0.03 µg/mL (≈ 0.683 µM). Further, the “SI (CC50/IC50)” value in series [1] was determined as 5.50. The half-maximal cytotoxic concentration (CC50) at 24 h in series [2] worked out at 0.72 ± 0.01 µg/mL (≈ 3.78 µM).
Consider `CC1=CC(=O)C=C(C2CCCCC2)C1=O` [SG-007, 2-cyclohexyl-6-methylcyclohexa-2,5-diene-1,4-dione], for which the IC50 in series [1] (setting [3]) was determined as 0.07 ± 0.02 µg/mL (≈ 0.343 µM). In addition, the “SI (CC50/IC50)” value in series [1] was 7.40. The CC50 at 24 h in series [2] amounted to 0.52 ± 0.09 µg/mL (≈ 2.55 µM).
`CC1=CC(=O)C(C2CCCCC2)=CC1=O` [SG-008, 2-cyclohexyl-5-methylcyclohexa-2,5-diene-1,4-dione]: the half-maximal inhibitory concentration (IC50) in series [1] (setting [3]) came out at 0.06 ± 0.01 µg/mL (≈ 0.294 µM). The “SI (CC50/IC50)” value in series [1] was determined as 42.50. Moreover, the CC50 at 24 h in series [2] amounted to 2.55 ± 0.2 µg/mL (≈ 12.5 µM).
As to `CCC(C)(C)C1=CC(=O)C(C)=CC1=O` [SG-010, 2-methyl-5-(tert-pentyl)cyclohexa-2,5-diene-1,4-dione], the IC50 in series [1] (setting [3]) was 0.12 ± 0.02 µg/mL (≈ 0.624 µM). In series [1], the “SI (CC50/IC50)” value is recorded as 37.50. Moreover, in series [1] (statement in words), the leishmanicidal activity entry is on record as “shows leishmanicidal activity”. The CC50 at 24 h in series [2] was 4.51 ± 0.47 µg/mL (≈ 23.5 µM).
Regarding `CCC(C)(CC)C1=CC(=O)C(C)=CC1=O` [SG-011, 2-methyl-5-(3-methylpentan-3-yl)cyclohexa-2,5-diene-1,4-dione], the IC50 in series [1] (setting [3]) was found to be 0.89 ± 0.06 µg/mL (≈ 4.31 µM). For the same molecule, the “SI (CC50/IC50)” value in series [1] was 13.80. For the same molecule, the CC50 at 24 h in series [2] amounted to 12.3 ± 0.77 µg/mL (≈ 59.5 µM).
Consider `CC1=CC(=O)C(C23CC4CC(CC(C4)C2)C3)=CC1=O` [SG-012, 2-((3r,5r,7r)-adamantane-1-yl)-5-methylcyclohexa-2,5-diene-1,4-dione], for which the IC50 in series [1] (setting [3]) turned out to be 0.08 ± 0.01 µg/mL (≈ 0.312 µM). The “SI (CC50/IC50)” value in series [1] turned out to be 9.75. Moreover, in series [2], the cytotoxic concentration (CC50) at 24 h worked out at 0.78 ± 0.02 µg/mL (≈ 3.04 µM).
Consider `CC1=CC(=O)C(C2CCCCCC2)=CC1=O` [SG-013, 2-cycloheptyl-5-methylcyclohexa-2,5-diene-1,4-dione], for which, in series [1] (setting [3]), the IC50 came to 0.09 µg/mL (≈ 0.412 µM). Further, the “SI (CC50/IC50)” value in series [1] was 7.10. Further, the 50% cytotoxic concentration (CC50) at 24 h in series [2] is 0.92 ± 0.05 µg/mL (≈ 4.21 µM).
The like results for `CC1=CC(=O)C=C(C2CCCCCC2)C1=O` [SG-014, 2-cycloheptyl-6-methylcyclohexa-2,5-diene-1,4-dione] were, in that order, 0.7 ± 0.02 µg/mL (≈ 3.21 µM), 24.20 and 8.95 ± 1.75 µg/mL (≈ 41 µM).
